Results as given in patent publication US9290476B2, “Methylene linked quinolinyl modulators of RORγt” (Janssen Pharmaceutica NV, priority 2012, dated 2016).
Several values for one entry are separate records, joined by “and”; a condition that tells them apart may be missing. Equal entries are not always repeated. Structures can show the parent of a compound that is named as a salt. Where two headings read alike, the source gives them in different places.

Legend:
[1] = target: human RORγt ligand binding domain (RORγt LBD) (Homo sapiens (Human), UniProt P51449); assay: RORγt ThermoFluor assay (thermal shift binding affinity); settings: estimated from thermal shift
In short: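 Thermal shift used 0.065 mg/mL RORγt LBD with 60 μM 1,8-ANS in 100 mM Hepes pH 7.0, 10 mM NaCl, 2.5 mM GSH and 0.002% Tween-20, heated at 1 °C/min. Fluorescence was excited at 380–400 nm and emission read at 500 nm.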

[2] = test system: IL-17 production by CD4 T cells; assay: Human Th17 assay (IL-17 production by CD4 T cells under Th17 differentiation); format: cell-based; settings: human CD4+ T cells, IL-17 after 3 days, read-out: Human Th17 Assay, IC50 μM
In short: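 Healthy-donor peripheral CD4+ T cells (1.5×10^5/well) preincubated 1 h with titrated compound (0.2% DMSO), then differentiated with anti-CD3/CD28 beads, anti-IL4, anti-IFNγ, IL1β, IL23, IL6, TGFβ and IL2 for 3 days at 37 °C. Supernatant IL-17 quantified by MSD electrochemiluminescence against a standard curve; IC50 fitted.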

human RORγt LBD = human RORγt LBD (Homo sapiens (Human), UniProt P51449); assay: RORγt reporter assay (GAL4-RORγt LBD luciferase in HEK293T cells); format: cell-based; settings: for RORγt reporter Assay, % inhibition @ 6 μM / IC50: HEK293T cells; for IC50: 24 hours compound treatment; for inhibition at 6 µM: HEK-293T, read-out: RORγt reporter Assay, % inhibition @ 6 μM, HEK293T cells, 6 μM
In short: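 HEK293T cells transiently co-transfected with GAL4-DBD–wild-type human RORγt LBD (pBIND) and GAL4-responsive firefly luciferase reporter (pGL4.31); renilla luciferase from pBIND normalises transfection/viability. Cells in phenol-red-free DMEM, 5% lipid-reduced FCS, treated with compound 24 h. Firefly/renilla ratio plotted against compound concentration.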

Chain of human RORγt ligand binding domain (RORγt LBD) (P51449 other isoform, or with tags, fused parts or gaps): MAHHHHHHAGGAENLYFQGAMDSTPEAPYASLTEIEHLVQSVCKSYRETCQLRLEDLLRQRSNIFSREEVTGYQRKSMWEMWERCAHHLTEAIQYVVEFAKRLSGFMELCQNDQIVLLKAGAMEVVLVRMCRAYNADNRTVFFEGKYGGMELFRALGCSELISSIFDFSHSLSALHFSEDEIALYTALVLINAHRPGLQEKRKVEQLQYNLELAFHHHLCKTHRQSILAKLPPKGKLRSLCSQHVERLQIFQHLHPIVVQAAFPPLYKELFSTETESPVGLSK
Chain of human RORγt LBD (P51449 258-518): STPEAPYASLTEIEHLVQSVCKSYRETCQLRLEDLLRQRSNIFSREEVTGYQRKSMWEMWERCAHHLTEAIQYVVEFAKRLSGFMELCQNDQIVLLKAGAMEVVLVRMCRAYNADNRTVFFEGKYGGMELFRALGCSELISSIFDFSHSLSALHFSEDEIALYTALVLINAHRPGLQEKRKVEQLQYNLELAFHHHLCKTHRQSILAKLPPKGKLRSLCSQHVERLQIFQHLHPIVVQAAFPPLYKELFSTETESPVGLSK

In the case of `COc1nc2ccc(C(O)(c3ccc(C#N)cc3)c3cncn3C)cc2c(C#N)c1Cc1ccc(-n2cccn2)cc1` (single isomer, unassigned) [Example 76C, 3-(4-(1H-Pyrazol-1-yl)benzyl)-6-((4-cyanophenyl)(hydroxy)(1-methyl-1H-imidazol-5-yl)methyl)-2-methoxyquinoline-4-carbonitrile], the Kd [1] is reported as 0.015 µM, the IC50 ([2]; Homo sapiens, CD4+ T, 72 h) is reported as 0.033 µM and the “RORγt reporter Assay, % inhibition @ 6 μM” value (human RORγt LBD) is reported as 101%. It also gave an IC50 (human RORγt LBD) of 0.045 µM.
With `COc1nc2ccc(C(O)(c3ccc(C(F)(F)F)nc3)c3cncn3C)cc2c(C#N)c1Cc1ccc(-n2cccn2)cc1` (single isomer, unassigned) [Example 73C, 3-(4-(1H-Pyrazol-1-yl)benzyl)-6-(hydroxy(1-methyl-1H-imidazol-5-yl)(6-(trifluoromethyl)pyridin-3-yl)methyl)-2-methoxyquinoline-4-carbonitrile] the Kd [1] was 0.034 µM, the IC50 [2] was 0.13 µM and the “RORγt reporter Assay, % inhibition @ 6 μM” value (human RORγt LBD) was 99%. The IC50 (human RORγt LBD) was 0.31 µM.
Compound `Cn1cncc1C(O)(c1ccc(Cl)cc1)c1ccc2nc(Cl)c(Cc3ccc(-n4cccn4)cc3)c(Cl)c2c1` (stereo not drawn) [Example 11, (3-(4-(1H-Pyrazol-1-yl)benzyl)-2,4-dichloroquinolin-6-yl)(4-chlorophenyl)(1-methyl-1H-imidazol-5-yl)methanol.TFA] has a Kd [1] of 0.075 µM, an IC50 ([2]; Homo sapiens, CD4+ T, 72 h) of 0.3 µM and an IC50 (human RORγt LBD) of 0.16 µM. The inhibition at 6 µM (human RORγt LBD) was 104%.
For `OC(c1cccnc1)(c1cccc(Cl)c1)c1ccc2nc(Cl)c(Cc3cccs3)c(Cl)c2c1` (stereo not drawn) [Example 32, (3-Chlorophenyl)(2,4-dichloro-3-(thiophen-2-ylmethyl)quinolin-6-yl)(pyridin-3-yl)methanol.TFA], the Kd [1] was 0.033 µM, the IC50 ([2]; Homo sapiens, CD4+ T, 72 h) was 1.8 µM and the IC50 (human RORγt LBD) was 0.11 µM. For the same compound, the inhibition at 6 µM (human RORγt LBD) was 103%.
`COc1nc2ccc(C(O)(c3ccccc3)C3CCN(C(C)=O)CC3)cc2c(Cl)c1Cc1ccc(-n2cccn2)cc1` (single isomer, unassigned) [Example 83C, 1-(4-((3-(4-(1H-Pyrazol-1-yl)benzyl)-4-chloro-2-methoxyquinolin-6-yl)(hydroxy)(phenyl)methyl)piperidin-1-yl)ethanone] was tested, and the Kd [1] was 0.077 µM, the IC50 [2] was 0.12 µM and the “RORγt reporter Assay, % inhibition @ 6 μM” value (human RORγt LBD) was 103%. For the same compound, the IC50 (human RORγt LBD) was 0.14 µM.
For `Cc1cc(C(O)(c2ccc(C(F)(F)F)nc2)c2cncn2C)cc2c(C#N)c(Cc3ccc(-n4cccn4)cc3)c(C#N)nc12` (single isomer, unassigned) [Example 65C, 3-(4-(1H-pyrazol-1-yl)benzyl)-6-(hydroxy(1-methyl-1H-imidazol-5-yl)(6-(trifluoromethyl)pyridin-3-yl)methyl)-8-methylquinoline-2,4-dicarbonitrile], the Kd [1] was 0.0042 µM, the IC50 [2] was 0.045 µM and the “RORγt reporter Assay, % inhibition @ 6 μM” value (human RORγt LBD) was 100%. For the same compound, the IC50 (human RORγt LBD) was 0.046 µM.
`COc1nc2ccc(C(O)(c3ccc(C#N)cc3)c3cncn3C)cc2c(C#N)c1Cc1ccc(C(F)(F)F)cc1` (single isomer, unassigned) [Example 96B, 6-((4-cyanophenyl)(hydroxy)(1-methyl-1H-imidazol-5-yl)methyl)-2-methoxy-3-(4-(trifluoromethyl)benzyl)quinoline-4-carbonitrile] gave a Kd [1] of 0.048 µM, an IC50 [2] of 0.05 µM and an IC50 (human RORγt LBD) of 0.16 µM. For the same compound, the inhibition at 6 µM (human RORγt LBD) was 97%.
`COc1nc2ccc(C(O)(c3ccccc3)C3CCN(C(C)=O)CC3)cc2c(Cl)c1Cc1ccc(-n2cccn2)cc1` (single isomer, unassigned) [Example 83B, 1-(4-((3-(4-(1H-Pyrazol-1-yl)benzyl)-4-chloro-2-methoxyquinolin-6-yl)(hydroxy)(phenyl)methyl)piperidin-1-yl)ethanone] was tested, and the Kd [1] was 0.0047 µM, the IC50 [2] was 0.016 µM and the IC50 (human RORγt LBD) was 0.024 µM and ~0.07 µM. The inhibition at 6 µM (human RORγt LBD) was 100%.
`Cn1cncc1C(O)(c1ccc(C(F)(F)F)nc1)c1ccc2nc(Cl)c(Cc3ccc(-n4cccn4)cc3)c(Cl)c2c1` (stereo not drawn) [Example 23, (3-(4-(1H-Pyrazol-1-yl)benzyl)-2,4-dichloroquinolin-6-yl)(1-methyl-1H-imidazol-5-yl)(6-(trifluoromethyl)pyridin-3-yl)methanol.TFA] was tested, and the Kd [1] was 0.004 µM, the IC50 ([2]; Homo sapiens, CD4+ T, 72 h) was 0.15 µM and the IC50 (human RORγt LBD) was 0.014 µM. The inhibition at 6 µM (human RORγt LBD) was 95%.
